Measured values: PubChem BioAssay AID328 (DTP/NCI, 2004)
“And” between values parts separate entries of the source, which are not always exact repeats. Identical values can stand only once. Toxic doses and inconclusive results are not listed.

System: BDF1 mice, P388 leukemia ip, median survival T/C
Experiment: NCI In Vivo Anticancer Drug Screen. Data for tumor model P388 Leukemia (intraperitoneal) in B6D2F1 (BDF1) mice
Settings: endpoint: median survival time, higher = longer survival
How it was run: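 Mice carrying the transplantable tumour receive compound or vehicle. Survival is followed in each arm, and the treated measure is divided by the vehicle measure.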

[1] = dose: 100.0 mg/kg/injection, schedule: Q01DX009 (ip), vehicle: saline with Tween-80
[2] = dose: 400.0 mg/kg/injection, schedule: Q01DX009 (ip), vehicle: saline with Tween-80
[3] = dose: 100.0 mg/kg/injection, schedule: Q04DX003 (ip), vehicle: saline with Tween-80
[4] = dose: 200.0 mg/kg/injection, schedule: Q04DX003 (ip), vehicle: saline with Tween-80
[5] = dose: 400.0 mg/kg/injection, schedule: Q04DX003 (ip), vehicle: saline with Tween-80

Brc1ncnc2nc[nH]c12
T/C (dose: 100.0 mg/kg/injection, schedule: Q01DX009 (ip), vehicle: saline sonified): 105 % of control | T/C (dose: 100.0 mg/kg/injection, schedule: Q04DX003 (ip), vehicle: saline sonified): 100 % of control | T/C (dose: 200.0 mg/kg/injection, schedule: Q01DX009 (ip), vehicle: saline sonified): 111 % of control | T/C (dose: 200.0 mg/kg/injection, schedule: Q04DX003 (ip), vehicle: saline sonified): 105 % of control | T/C (dose: 400.0 mg/kg/injection, schedule: Q01DX009 (ip), vehicle: saline sonified): 116 % of control | T/C (dose: 400.0 mg/kg/injection, schedule: Q04DX003 (ip), vehicle: saline sonified): 100 % of control

CN(C)C(=S)SSC(=S)N(C)C
T/C (dose: 25.0 mg/kg/injection, schedule: Q04DX003 (ip), vehicle: Klucel (hydroxypropylcellulose) (HPC)): 109 % of control | T/C (dose: 50.0 mg/kg/injection, schedule: Q04DX003 (ip), vehicle: Klucel (hydroxypropylcellulose) (HPC)): 118 % of control | T/C (dose: 100.0 mg/kg/injection, schedule: Q01DX001 (ip), vehicle: Klucel (hydroxypropylcellulose) (HPC)): 100 % of control | T/C (dose: 100.0 mg/kg/injection, schedule: Q04DX003 (ip), vehicle: Klucel (hydroxypropylcellulose) (HPC)): 113 % of control | T/C (dose: 200.0 mg/kg/injection, schedule: Q01DX001 (ip), vehicle: Klucel (hydroxypropylcellulose) (HPC)): 109 % of control | T/C (dose: 400.0 mg/kg/injection, schedule: Q01DX001 (ip), vehicle: Klucel (hydroxypropylcellulose) (HPC)): 113 % of control

OC(CCl)CN1CC[N+]2(CC1)CC[N+]1(CCN(CC(O)CCl)CC1)CC2 (configuration not stated)
T/C (dose: 11.25 mg/kg/injection, schedule: Q01DX009 (ip), vehicle: water): 114 % of control | T/C (dose: 27.5 mg/kg/injection, schedule: Q01DX009 (ip), vehicle: water): 100 % of control | T/C (dose: 45.0 mg/kg/injection, schedule: Q01DX009 (ip), vehicle: water): 115 % of control | T/C (dose: 200.0 mg/kg/injection, schedule: Q01DX009 (ip), vehicle: water): 153 % of control and 159 % of control

CN/N=C/c1cccnc1
T/C (dose: 12.5 mg/kg/injection, schedule: Q01DX009 (ip), vehicle: saline): 97 % of control | T/C (dose: 25.0 mg/kg/injection, schedule: Q01DX009 (ip), vehicle: saline): 95 % of control | T/C (dose: 50.0 mg/kg/injection, schedule: Q01DX009 (ip), vehicle: saline with Tween-80): 105 % of control | T/C (dose: 50.0 mg/kg/injection, schedule: Q01DX009 (ip), vehicle: saline): 95 % of control

O=S1(=O)CCN(C2CCCC2)CC1
T/C (dose: 50.0 mg/kg/injection, schedule: Q01DX009 (ip), vehicle: Klucel (hydroxypropylcellulose) (HPC)): 104 % of control | T/C (dose: 100.0 mg/kg/injection, schedule: Q01DX009 (ip), vehicle: Klucel (hydroxypropylcellulose) (HPC)): 121 % of control | T/C (dose: 200.0 mg/kg/injection, schedule: Q01DX009 (ip), vehicle: Klucel (hydroxypropylcellulose) (HPC)): 111 % of control

NC(=O)Oc1ccccc1
T/C [1]: 104 % of control | T/C (dose: 200.0 mg/kg/injection, schedule: Q01DX009 (ip), vehicle: saline with Tween-80): 109 % of control | T/C [2]: 86 % of control

COc1ccc(C(CCl)(CCl)c2ccc(OC)c(C)c2)cc1C
T/C [1]: 104 % of control | T/C [3]: 91 % of control | T/C [4]: 87 % of control | T/C [2]: 100 % of control | T/C [5]: 100 % of control

CC(=O)c1ccc2c(c1)[nH]c1ccccc12
T/C [3]: 100 % of control | T/C [4]: 86 % of control | T/C [5]: 95 % of control

CCCOC1=C(N2CC2)C(=O)C(OCCC)=C(N2CC2)C1=O
T/C (dose: 2.2 mg/kg/injection, schedule: Q04DX003 (ip), vehicle: saline with Tween-80): 117 % of control | T/C (dose: 5.55 mg/kg/injection, schedule: Q04DX003 (ip), vehicle: saline with Tween-80): 200 % of control | T/C (dose: 7.5 mg/kg/injection, schedule: Q04DX003 (ip), vehicle: saline with Tween-80): 165 % of control | T/C (dose: 8.33 mg/kg/injection, schedule: Q04DX003 (ip), vehicle: saline with Tween-80): 163 % of control and 200 % of control | T/C (dose: 12.5 mg/kg/injection, schedule: Q04DX003 (ip), vehicle: saline with Tween-80): 186 % of control and 200 % of control and 218 % of control | T/C (dose: 18.7 mg/kg/injection, schedule: Q04DX003 (ip), vehicle: saline with Tween-80): 245 % of control and 260 % of control | T/C (dose: 25.0 mg/kg/injection, schedule: Q04DX003 (ip), vehicle: saline with Tween-80): 163 % of control

NC(=S)N/N=C/c1nccc2ccccc12
T/C (dose: 18.8 mg/kg/injection, schedule: Q01DX009 (ip), vehicle: saline with Tween-80): 158 % of control | T/C (dose: 37.5 mg/kg/injection, schedule: Q01DX009 (ip), vehicle: saline with Tween-80): 185 % of control | T/C (dose: 75.0 mg/kg/injection, schedule: Q01DX009 (ip), vehicle: saline with Tween-80): 235 % of control | T/C (dose: 300.0 mg/kg/injection, schedule: Q01DX009 (ip), vehicle: saline with Tween-80): 91 % of control

COC(=O)c1ccc(OP(=O)(N(C)C)N(C)C)cc1
T/C (dose: 12.5 mg/kg/injection, schedule: Q01DX009 (ip), vehicle: saline with Tween-80): 117 % of control | T/C (dose: 25.0 mg/kg/injection, schedule: Q01DX009 (ip), vehicle: saline with Tween-80): 115 % of control
